Where “and” joins values, the source holds several entries; their conditions need not be identical. Equal values may be shown once. Ends that are not written are not given here.
Columns and labels:
OVA-specific antibody = OVA-specific antibody responses with IFA or alum adjuvant in Rhesus monkeys (Example 18); type: in vivo
Description: First, 96-well U-bottom plastic dishes were coated overnight with 1 μg ovalbumin (OVA) in 100 μl PBS per well. The next day, the dishes were rinsed with PBS, blocked with PBS containing 5% fetal bovine serum (FBS), and rinsed with PBS again. Plasma samples from experimental animals (see below) were diluted 10^2- to 10^5-fold and added to the dishes for 2 hours, after which the dishes were again rinsed with PBS. The dishes were then incubated with biotinylated goat anti-monkey IgG detection antibodies, then rinsed with PBS and incubated with streptavidin-linked horseradish peroxidase (SA-HRP). After a final rinsing with PBS, the HRP substrate 2,2′-Azinobis [3-ethylbenzothiazoline-6-sulfonic acid]-diammonium salt was added.
Different types of immune responses can be induced in mammals by varying parameters such as the dose of antigen, the formulation, the route of administration, and the type of adjuvant.

dendritic cells = test: Dendritic cell infiltration after intradermal injection in mice (anti-DEC-205 staining); type: in vivo; set-up: key to Dendritic cell infiltration Score / Infiltration Score: 0 = none, 1 = slight, 2 = mild, 3 = moderate, 4 = severe
Source text: The following chemokines were obtained from R&D Systems (Minneapolis, Minn.): vMCK-2, mC10, and GM-CSF. The following peptides were synthesized at Phoenix Pharmaceuticals (San Carlos, Calif.): SHAAYtide (SEQ ID NO:6), several […] MODIFIED peptides of SHAAGtide variant (SEQ ID NO:) (i.e. cyclized using the MPR-Cys linked cyclization), control peptide (SEQ ID NO:33, […]Gin Pro Gly lie Lys Arg Arg Trp Leu Met), randomly conjugated to OVA in either a 1:1 or 1:4 ratio (by MBS coupling method), and conjugated to OVA at the C-terminus (C-term, made by the addition of a cysteine), and SHAAGtide variant (SEQ ID NO:3). In three separate experiments, chemokines or peptides (2 μg or 20 μg in PBS) were injected intradermally into BALB/c or C57BI/6 mice (Jackson Laboratory; Bar Harbor, Me.). In each experiment, one mouse received an injection of PBS only as a negative control. At various times after injection, the mice were euthanized, and the area around the injection site was excised and subjected to immunohistology. Frozen sections were stained with anti-DEC-205 antibody (Bio-Whittaker Molecular Applications; Rockland, Me.) that recognizes a dendritic cell-specific molecule (Kraal et al., 1986). A relative staining number on a scale of […] was assigned to each section (0, none; 1, slight; 2, mild; 3, moderate; 4, severe).

Sequence: MLWRRKIGPQMTLSHAAY [SEQ ID NO: 6]
- effect of co-administration on the OVA with IFA response (OVA-specific antibody; IFA adjuvant): did not diminish the OVA with IFA response
- effect of co-administration on the IgG response induced by OVA plus alum (OVA-specific antibody; alum adjuvant): dramatically reduced the IgG response induced by OVA plus alum
- Dendritic cell infiltration Score (dendritic cells; BALBc mice, 2 μg, 6 hours, listed as SHAAYtide (SEQ ID NO: 6)): 2 and 3
- Dendritic cell infiltration Score (dendritic cells; BALBc mice, 2 μg, 30 hours, listed as SHAAYtide (SEQ ID NO: 6)): 3 and 2
- Dendritic cell infiltration Score (dendritic cells; BALBc mice, 20 μg, 6 hours, listed as SHAAYtide (SEQ ID NO: 6)): 2 and 3
- Dendritic cell infiltration Score (dendritic cells; C57B1/6 mice, 2 μg dose, 6 hours, 0 none, 1 slight, 2 mild, 3 moderate, 4 severe, one animal per line): 1
- Dendritic cell infiltration Score (dendritic cells; C57B1/6 mice, 2 μg dose, 30 hours): 0
- Dendritic cell infiltration Score (dendritic cells; C57B1/6 mice, 2 μg dose, 51 hours): 0
- infiltration of DEC-205-labeled cells (dendritic cells; summary of Tables 15, 16 and 17): excellent infiltration

— patent US8637043B2, “Compositions useful as ligands for the formyl peptide receptor like 1 receptor and methods of use thereof” (Chemocentryx, Inc., priority 2001, dated 2014)
